# According to patent US20230219911A1, “BENZOTHIAZOLE DERIVATIVES AND USES THEREOF” (SHENYANG PHARMACEUTICAL UNIVERSITY, priority 2020, published 2023):
# Columns and labels:
# [1] = system: carrageenan inflammatory pain model SD rats; test: Measurement of analgesic effect, carrageenan inflammatory pain model, hot plate; assay type: in vivo; details: intragastric suspension 15 mg/mL, 1 hour before modeling, FIG. 6
# Experimental: Male SD rats (6 to 8 weeks old) (SPF (Beijing) Biotechnology Co., Ltd.) were subcutaneously injected with 50 μL of 1% λ-carrageenan saline solution at planta to prepare an inflammatory pain model (Rose T E, Morisseau C, Liu J Y, et al. 1-Aryl-3-(1-acylpiperidin-4-yl)urea inhibitors of human and murine soluble epoxide hydrolase: structure-activity relationships, pharmacokinetics, and reduction of inflammatory pain. J Med Chem, 2010, 53(19): 7067-7075). The compounds of Examples 12 and 40 were added to 0.5% sodium carboxymethylcellulose solution and ground to prepare a suspension with a concentration of 15 mg/mL. 1 hour before modeling, the rats were intragastrically administrated. The changes in the paw withdrawal time of rats were measured with a hot plate dolorimeter.
# [2] = system: STZ-induced retinopathy model Wistar rats; test: Improvement effect on diabetic retinopathy, STZ-induced retinopathy model; assay type: in vivo; details: 0.1% eye drops topically every day, after 6 months, FIG. 5
# Experimental: Male Wistar rats (180 to 200 g) (Experimental Animal Center, Hebei Medical University) were intraperitoneally injected with streptozotocin STZ (60 mg/kg) to prepare a diabetic model, and were fed for 3 months to induce a retinopathy model (Miyamoto K, Khosrof S, Bursell S E, et al. Prevention of leukostasis and vascular leakage in streptozotocin-induced diabetic retinopathy via intercellular adhesion molecule-1 inhibition. Proc Natl Acad Sci USA, 1999, 96(19): 10836-10841). The compound of Example 40 was dissolved in 10% hydroxypropyl-p-cyclodextrin solution, to be prepared into eye drops with a content of 0.1% for the compound of Example 40. The rats were topically administrated in eyes every day.
# [3] = molecular target: T1, sEH enzyme (human recombinant) (Homo sapiens, UniProt P34913); test: in vitro IC50 of soluble epoxide hydrolase (sEH) by fluorescence analysis; assay type: biochemical
# T1 construct: purchased Cayman Chemical
# T1 sequence (P34913 1-555): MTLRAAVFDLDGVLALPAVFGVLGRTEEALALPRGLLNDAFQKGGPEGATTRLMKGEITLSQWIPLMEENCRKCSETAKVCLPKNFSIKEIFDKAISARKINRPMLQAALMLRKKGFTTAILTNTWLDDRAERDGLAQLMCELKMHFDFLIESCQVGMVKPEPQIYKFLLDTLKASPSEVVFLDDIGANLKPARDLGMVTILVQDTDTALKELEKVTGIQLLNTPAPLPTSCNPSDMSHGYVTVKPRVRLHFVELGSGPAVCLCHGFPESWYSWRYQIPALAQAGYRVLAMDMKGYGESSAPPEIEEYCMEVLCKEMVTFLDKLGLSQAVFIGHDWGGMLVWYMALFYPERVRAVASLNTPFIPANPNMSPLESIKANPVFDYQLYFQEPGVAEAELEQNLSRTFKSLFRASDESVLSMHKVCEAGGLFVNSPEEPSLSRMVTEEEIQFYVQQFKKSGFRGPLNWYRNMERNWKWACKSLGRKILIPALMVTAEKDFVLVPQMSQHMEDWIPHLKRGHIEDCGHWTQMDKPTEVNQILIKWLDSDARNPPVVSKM
# Experimental: The benzothiazole skeleton compounds according to the above formula I of the present invention were tested for the in vitro sEH enzyme activity by fluorescence analysis. […] 12 μL of sEH enzyme (human recombinant, 0.5 mg/mL, Cayman Chemical) was diluted with 588 μL of buffer (25 mM bis-Tris, pH 7.0). […] The inhibitions at different concentrations for the compound were respectively measured in accordance with the inhibition assay, to calculate IC50.
# [4] = molecular target: T1, sEH enzyme (human recombinant); test: in vitro sEH enzyme activity by fluorescence analysis, single concentration inhibition; assay type: biochemical; details: compound 0.1 μM; human recombinant sEH; PHOME substrate; 37° C. 15 min; read-out: sEH % inhibition, @ 0.1 μM
# Experimental: The benzothiazole skeleton compounds (concentration: 0.1 μM) according to the above formula I of the present invention were tested for the in vitro sEH enzyme activity by fluorescence analysis.
# 12 μL of sEH enzyme (human recombinant, 0.5 mg/mL, Cayman Chemical) was diluted with 588 μL of buffer (25 mM bis-Tris, pH 7.0). The fluorescent substrate was PHOME (cyano-(6-methoxy-naphthalen-2-yl)-methyl (3-phenyl-oxiranyl)-acetate) in DMSO (10 μM, Cayman Chemical). The compound to be tested was dissolved in 100% DMSO at a concentration of 4 μM. 185 μL of buffer (25 mM bis-Tris, pH 7.0), 5 μL of compound solution, and 5 μL of diluted sEH enzyme were added to the wells of a 96-well plate, and finally 5 μL of substrate solution was added to initiate the reaction. After incubating at 37° C. for 15 min, the fluorescence signal was measured with a microplate reader (excitation wavelength 330 nm, emission wavelength 465 nm).
# Inhibition (%)=(F0−F1)/(F0)×100.
# [5] = system: lipopolysaccharide-injected KM mice, forced swimming test; test: Measurement of antidepressant effect, lipopolysaccharide / forced swimming test; assay type: in vivo; details: subcutaneous injection 23 hours after lipopolysaccharide, test 1 hour later, FIG. 7
# Experimental: Male KM mice (6 to 8 weeks old) (SPF (Beijing) Biotechnology Co., Ltd.) swam in advance for 10 min, and were injected with lipopolysaccharide (0.5 mg/kg). After 23 hours, the mice were subcutaneously injected with the solutions of the compounds of Examples 12 and 40 or the blank solvent. After 1 hour, the mice were subjected to the forced swimming test for 6 min, and the immobility time (s) in later 4 minute for the mice in each group was recorded.
# [6] = system: carrageenan-induced paw swelling in KM mice; test: Measurement of anti-inflammatory effect, carrageenan-induced paw swelling; assay type: in vivo; details: intraperitoneal injection 1 hour before carrageenan, FIG. 3
# Experimental: 1 hour in advance, the mice were intraperitoneally injected with the solutions of the compounds of Examples 12, 18, 27, and 40 (10% PEG 400, 10% Tween 80) or the blank solvent, respectively. Taking the initial paw thickness of the mice before modeling as 100%, the changes in the paw thickness of the mice were measured.
smiles,measurement,setting,value
"O=C(Nc1ccc(Cl)cc1)Nc1nc2ccc(N(CCN3CCOCC3)C(=O)Nc3ccc(Cl)cc3)cc2s1 [Example 40, 1-{2-[3-(4-chlorophenyl)ureido]benzo[d]thiazol-6-yl}-1-[2-(4-morpholinyl)ethyl]-3-(4-chlorophenyl)urea]",paw withdrawal time in hot plate dolorimeter,[1],significantly prolong the paw withdrawal time
same,"non-proliferative diabetic retinopathy symptoms (retinal capillary free pericytes, vascular leakage)",[2],significantly alleviated
same,IC50,[3],110 pM
same,inhibition at 0.1 µM,[4],43%
same,immobility time in forced swimming,[5],significantly reduce the immobility time
same,carrageenan-induced paw swelling (paw thickness),[6],significantly inhibit
same,effect on paw swelling compared with celecoxib,[6],better than that of celecoxib
